Consider 9 compounds from PubChem BioAssay (NCI).

Holding throughout (assay): NCI tumour cell line growth inhibition, 48 h
Test [1] deals with HCT-15 colon.
For test [2], the system named is OVCAR-3 ovarian.
Test [3] has as its system OVCAR-4 ovarian.
The subject of test [4] is HCT-116 colon.
Test [5] relates to COLO 205 colon.
Test [6] relates to HOP-62 NSCLC.
The subject of test [7] is SK-MEL-28 melanoma.
The test system of test [8] is SNB-75 CNS.
The test system of test [9] is SK-OV-3 ovarian.
Test [10] deals with NCI-H460 lung.

Each structure is given as a SMILES string. “And” between values parts separate entries of the source, which are not always exact repeats. Identical values can stand only once.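 Five compound concentrations were applied to cells in 96-well plates for 48 hours; endpoints were derived by simple linear interpolation of the resulting dose-response curve. GI50 = concentration required for 50% inhibition of growth. TGI is the concentration that stops growth completely.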 Some results are limits rather than exact numbers.

On to `Nc1ncnc2c(C3OC(CO)C(O)C3O)[nH]nc12` (stereo not given), for which the GI50 was 0.0383 µM and 0.0444 µM in [1]; 0.168 µM and 0.071 µM in [2]; 0.116 µM in test [3]; 2.99 µM in [5]; 0.123 µM in [6]; 2.64 µM and 1.69 µM in [7]. The GI50 was 0.0323 µM and 0.0738 µM in [9]; 0.0434 µM in test [10]. The TGI is 0.156 µM in test [1]; 1.79 µM and 0.377 µM in [2]; 3.51 µM and 2.3 µM in [3]; 3.16 µM in test [4]; 15.7 µM and 11.7 µM in test [5]; 30.6 µM and 25.4 µM in [7]. Besides, the TGI is 5.29 µM and 1.25 µM in [8]; 0.241 µM and 0.6 µM in test [9]; 2.12 µM and 1.44 µM in [10].

Regarding `S=C=NCc1ccccc1`, the TGI came out at 11.1 µM in [1]; 11.3 µM in test [2]; 13.8 µM in test [3]; 2.36 µM in test [4]; 4.78 µM in test [5]; 11.7 µM in [6]. Also, the TGI in test [7] was determined as 10.2 µM; in test [8] it was 17.1 µM; in test [9], 25.1 µM; in [10], 24.5 µM.

Take `Cc1ccc(S(=O)(=O)SCc2ccccc2CSS(=O)(=O)c2ccc(C)cc2)cc1`: the TGI in [1] was 48.6 µM; in [2], 43.7 µM; in test [3], 33.9 µM; in test [4] it was 59.6 µM; in [5], 31.1 µM; in test [6], more than 100 µM. Also, the TGI in test [7] is 36.6 µM; in test [8] it was more than 100 µM; in test [9], more than 100 µM; in [10] it was more than 100 µM.

On to `O=C(Nc1nc2ccccc2n1Cc1ccc(Cl)cc1)NC12CC3CC(CC(C3)C1)C2`, for which the TGI in test [1] was more than 100 µM; in [2], 60.7 µM; in test [3], 28.9 µM; in test [4] it was 64 µM; in test [5], more than 100 µM; in [6], 37.3 µM. Moreover, the TGI is 68.3 µM in test [7], 22.9 µM in test [8], 39.2 µM in [9] and more than 100 µM in test [10].

Regarding `Cc1cc2c3ccccc3ccc2[n+]2ccccc12`, the GI50 in test [1] was 37.9 µM; in test [2] it was 2.28 µM; in test [3], 2.88 µM; in test [4], 7.29 µM; in test [5] it was 1.95 µM; in [6], 2.58 µM. For the same compound, the GI50 was 3.07 µM in test [7], 4.66 µM in test [8], 10.7 µM in [9] and 8.81 µM in [10]. The TGI in [1] was more than 100 µM; in test [2], 11.8 µM; in test [3] it was 14.8 µM; in test [4], 44.4 µM; in test [5], 8.31 µM; in [6] it was 11.7 µM. Further, the TGI in [7] is 12.7 µM; in test [8] it was more than 33.7 µM; in [9] it was 73.3 µM; in [10] it was 28.1 µM.

As to `ClC1=NC(Cl)C(Cl)=N/C1=N\c1ncn[nH]1` (stereo not given), the GI50 is 1.95 µM in test [1]; 1.95 µM in [2]; 1.89 µM in test [3]; 1.76 µM in [4]; 2.28 µM in test [5]; 2.3 µM in test [6]. For the same compound, the GI50 in test [7] is 1.95 µM; in test [8], 5.64 µM; in test [9] it was 15.5 µM; in test [10], 3.65 µM. The TGI in test [1] amounted to 4.68 µM; in test [2], 3.4 µM; in test [3], 3.61 µM; in test [4], 3.48 µM; in test [5], 4.55 µM; in test [6], 5.11 µM. For the same compound, the TGI in [7] was found to be 4.04 µM; in [8], 20.7 µM; in [9], 29 µM; in test [10] it was 14.9 µM.

In the case of `CC1(C)CC(=O)c2c(ccc(C(=O)C[C@H](N)CO)c2N)O1`, the GI50 was 0.768 µM and 0.114 µM in test [1]; more than 33.3 µM in [3]; 1.36 µM and 2.01 µM in test [4]; 4.92 µM and 2.07 µM in [5]; 2.39 µM in test [6]; > 17.5 µM and 3.1 µM in test [8]. Moreover, the GI50 in test [9] is > 17.5 µM and 12.3 µM; in test [10], 0.89 µM and 0.129 µM. In addition, the TGI in [1] is 17.5 µM and 9.09 µM; in [2] it was 17.5 µM and > 33.3 µM; in [3], more than 33.3 µM; in [4], 17.5 µM and > 33.3 µM; in test [5] it was 17.5 µM and > 33.3 µM; in test [6], 17.5 µM and > 33.3 µM. Besides, the TGI in test [7] is 17.5 µM and > 33.3 µM; in test [8], more than 33.3 µM; in test [9] it was more than 33.3 µM; in test [10] it was 17.5 µM and > 33.3 µM.

As to `N#Cc1cccc(/C=C(/C(=O)c2ccccc2)c2ccccc2)c1`, the GI50 is 3.4 µM in test [1]; 3.63 µM in test [2]; 6.35 µM in [3]; 3.06 µM in test [4]; 5.3 µM in test [5]; 3.99 µM in test [6]. The GI50 in test [7] is 5.35 µM; in test [8] it was 4.69 µM; in test [9], 5.53 µM; in [10], 3.85 µM. Further, the TGI was 22.8 µM in test [1]; 11.8 µM in [2]; 20.3 µM in test [3]; 11.3 µM in test [4]; 20 µM in test [5]; 13.5 µM in test [6]. In addition, the TGI in [7] is 19.1 µM; in [8], 17.5 µM; in [9], 20.8 µM; in [10], 19.6 µM.

Turning to `CC(=O)C1C(=O)C(=O)N(c2ccccc2N2C(=O)C(=O)C(C(C)=O)C2=O)C1=O` (stereo not given), the TGI in test [1], in [2], in test [3], in test [4], in [5] and in [6] was more than 100 µM each time. Besides, the TGI in [7], in test [8], in test [9] and in test [10] was more than 100 µM throughout.
